Strand notation (5' to 3'): a small letter for the sugar, then the base; units joined by * are phosphorothioate-linked, units joined directly phosphodiester-linked; [ ] holds rarer units or linkages, { } end groups; capitals alone tell only the bases. e = 2'-O-(2-methoxyethyl) (MOE); l = locked nucleic acid (LNA); k = constrained ethyl (cEt); [5mC] = 5-methylcytosine; d = 2'-deoxy (DNA)
Test system: miR-21
Assay: miR-21 luciferase sensor assay in Hela cells
Type: cell-based
Settings: for inhibition of miR-21 activity in the luciferase assay (in words) / luciferase value normalized to beta-galactosidase activity: Hela cells
Protocol: The compounds were assessed for miR-21 inhibitory activity in a luciferase assay. A microRNA luciferase sensor construct was engineered using pGL3-MCS2 (Promega). The construct was introduced into Hela cells to test the ability of anti-miR compounds to inhibit activity of miR-21. In this assay, miR-21 present in the Hela cells binds to its cognate site(s) in the luciferase sensor construct, and suppresses luciferase expression. When the appropriate anti-miR is introduced into the cells, it binds to miR-21 and relieves suppression of luciferase expression. Thus, in this assay anti-miRs that are effective inhibitors of miR-21 expression will cause an increase in luciferase expression.
Hela cells (ATCC), stably transfected with a luciferase construct engineered to contain a sequence complementary of miR-21, were seeded in T-170 flasks (BD Falcon) at 3.5*10^6 cells/flask. Hela cells were grown in Dulbecco's Modified Eagle Medium with High Glucose (Invitrogen).
Each flask of Hela cells was transfected with 0.5 ug of a phRL sensor plasmid (Promega) expressing Renilla to be used in normalization. Hela cells were transfected using 20 ul Lipofectamine 2000/flask (Invitrogen). After 4 hours of transfection, cells were washed with PBS and trypsinized Hela cells were plated at 40 k/well in 24 well plates (BD Falcon) and left overnight.
Hela cells were transfected with anti-miRs using Lipofectin (Invitrogen) at 2.5 ul Lipofectin/100 nM ASO/ml Opti-MEM I Reduced Serum Medium (Invitrogen) for 4 hours. After ASO transfection, Hela cells were refed with Dulbecco's Modified Eagle Medium with High Glucose (Invitrogen).
Hela cells are passively lysed and luciferase activity measured using the Dual-Luciferase Reporter Assay System (Promega).
The luciferase assay was performed to test the ability of anti-miRs with the nucleoside patterns described herein to inhibit the activity of miR-21. Results were compared to a ‘mock’ treatment, in which cells received no anti-miR treatment. The experiment was repeated and results of two experimental replicates are shown in the following Table B, as the luciferase value normalized to beta-galactosidase activity.
The luciferase assay was performed as described herein to test the ability of anti-miRs in Table F to inhibit the activity of miR-21. Results were compared to a ‘mock’ treatment, in which cells received no anti-miR treatment. The experiment was repeated and results of two experimental replicates are shown in the following Table D, as fold change in luciferase value relative to the mock treatment.

[1] = concentration of anti-miR compound 0.2 (unit not given)
[2] = concentration of anti-miR compound 0.6 (unit not given)
[3] = concentration of anti-miR compound 1.9 (unit not given)
[4] = concentration of anti-miR compound 5.6 (unit not given)
[5] = concentration of anti-miR compound 16.7 (unit not given)
[6] = concentration of anti-miR compound 50.0 (unit not given)
[7] = 500 nM oligonucleotide, two experimental replicates

Substance	inhibition of miR-21 activity in the luciferase assay (in words)	fold change in luciferase value relative to the mock treatment [1] [fold change]	fold change in luciferase value relative to the mock treatment [2] [fold change]	fold change in luciferase value relative to the mock treatment [3] [fold change]	fold change in luciferase value relative to the mock treatment [4] [fold change]	fold change in luciferase value relative to the mock treatment [5] [fold change]	fold change in luciferase value relative to the mock treatment [6] [fold change]	luciferase value normalized to beta-galactosidase activity (4 nM oligonucleotide)	luciferase value normalized to beta-galactosidase activity (20 nM oligonucleotide)	luciferase value normalized to beta-galactosidase activity (100 nM oligonucleotide)	luciferase value normalized to beta-galactosidase activity [7]	luciferase value normalized to beta-galactosidase activity (.16 nM oligonucleotide)	luciferase value normalized to beta-galactosidase activity (.8 nM oligonucleotide)
AE^MeCLAETE^MeCLAEGETE^MeCLTEGEAE^MeTLAEAEGE^MeCLTEAE (antisense eA*l[5mC]*eA*eT*l[5mC]*eA*eG*eT*l[5mC]*eT*eG*eA*lT*eA*eA*eG*l[5mC]*eT*eA) [Compound 25117, variation of 25070: each non-bicyclic nucleoside is 2′-MOE, each cytosine 5-methyl cytosine]	not effective inhibitors of miR-21	1.05	1.15	1.14	3.64	7.36	2.91	–	–	–	–	–	–
AE^MeCSAETE^MeCSAEGETE^MeCSTEGEAE^MeTSAEAEGE^MeCSTEAE (antisense eA*k[5mC]*eA*eT*k[5mC]*eA*eG*eT*k[5mC]*eT*eG*eA*kT*eA*eA*eG*k[5mC]*eT*eA; further chemistry not given here) [Compound 25116, variation of 25070: each non-bicyclic nucleoside is 2′-MOE, each cytosine 5-methyl cytosine]	not effective inhibitors of miR-21	1.06	0.98	1.06	2.47	5.64	1.98	–	–	–	–	–	–
AE^MeCSAT^MeCSAGT^MeCSTGATSAAG^MeCSTAE (antisense ACATCAGTCTGATAAGCTA; MOE ends, cEt, 5-methyl C, unmarked nucleosides not given here, further chemistry not given here) [Compound 25922, variation of 25070: each cytosine is a 5-methyl cytosine]	inhibition of miR-21 in a dose-dependent manner	1.02	1.10	1.34	8.81	11.60	11.46	–	–	–	–	–	–
AE^MeCSAT^MeCSAGT^MeCSTGATSAAG^MeCSTAS (antisense eA*k[5mC]*dA*dT*k[5mC]*dA*dG*dT*k[5mC]*dT*dG*dA*kT*dA*dA*dG*k[5mC]*dT*kA; further chemistry not given here) [Compound 25924, variation of 25070: 3′-terminal cEt nucleoside and each cytosine is a 5-methyl cytosine]	inhibition of miR-21 in a dose-dependent manner	1.10	1.25	1.37	7.80	13.01	8.99	–	–	–	–	–	–
AeTe^MeCeASGSTe^MeCeTeGSASTeAeASGS^MeCeTeAe [Compound 25077]	–	–	–	–	–	–	–	45	33	42	40	34	33
AeTe^MeCeAeGeTe^MeCeTeGSASTeASASGe^MeCeUSAS [Compound 25731]	–	–	–	–	–	–	–	32	39	38	59	34	45
Ae^MeCAST^MeCAGST^MeCTGASTASAGS^MeCTAe (ACATCAGTCTGATAAGCTA; listed as DNA, chemistry not fully specified) [Compound 25071]	–	–	–	–	–	–	–	50	63	53	42	48	36
Te^MeCASA^MeCAST^MeCAGST^MeCTGASTAAGS^MeCTAe (TCAACATCAGTCTGATAAGCTA; cEt, 5-methyl C and phosphorothioate modifications, code letters not given here, further chemistry not given here) [Compound 25067]	–	–	–	–	–	–	–	43	41	30	42	38	23

Reference: patent US20120270928A1, “MICRORNA COMPOUNDS AND METHODS FOR MODULATING MIR-21 ACTIVITY” (REGULUS THERAPEUTICS INC., priority 2011, published 2012)
